Experiments:
[1] = test system: IGROV1-R10 ovarian cancer cells; test: PARP and caspase 3 cleavage by western blot; format: cell-based; parameters: key to PARP cleavage: +: a little band corresponding to the 85 kDa cleaved form of PARP is observable on the western blot; ++: a band corresponding to the 85 kDa cleaved form of PARP is clearly observable on the western blot; +++: PARP in nearly completely cleaved
Experimental: (§1) Exponentially growing cells were transfected by siRNA as described below, and after 48 h, cells were continuously exposed to (Het)aromatic oligosystems (10, 25 or 50 μM) dissolved in DMSO (<0.1% of total volume) for 4 to 24 supplementary hours.
(§2) Cells were seeded in 25 cm^2 flasks the day before to reach 30-50% confluency at the time of transfection. The transfection INTERFERin™ reagent (Polyplus Transfection, Strasbourg. France) was added to siRNA diluted in Opti-MEM® reduced serum medium (Invitrogen, Cergy-Pontoise, France) and complexes formation was allowed to proceed for 15 min at RT before being applied to cells. The final siRNA concentration in the flasks was 20 nM.
Cells were rinsed with ice-cold PBS, suspended in a lysis buffer [RIPA:NaCl 150 mM, Tris (pH 8) 50 mM, Triton X100 1%, PMSF 4 mM, EDTA 5 mM, NaF 10 mM, NaPPi 10 mM, Na3OV4 1 mM, aprotinin 0.5 μl/ml and 4.6 ml ultra pure water] and incubated on ice for 30 minutes. Lysates were collected after centrifugation (13200 g, 10 min, 4° C.) and protein concentrations were determined using the Bradford assay (Bio-Rad, Hercules, USA). 20 μg of protein were separated by SDS-PAGE on a 4-12% gradient polyacrylamide gel (Invitrogen, Cergy-Pontoise, France) and transferred to Hybond-PVDF membranes (Amersham, Orsay, France). After blocking non-specific binding sites for 1 hour at RT by 5% (w/v) non-fat dry milk in TBS with 0.1% (v/v) Tween20 (T-TBS), the membranes were incubated overnight at 4° C. with the following rabbit monoclonal antibody: PARP, caspase-3 and Bcl-xL, Bim (Cell Signaling Technology, Ozyme, Saint-Quentin-en-Yvelines, France), Mcl-1 (Santa Cruz, Le Perray-en-Yvelines, France), HSP-70, Noxa (Calbiochem, Fontenay-sous-Bois, France), (Cell Signalling) and Actin (Sigma-Aldrich, Saint-Quentin Fallavier, France). Membranes were then washed with T-TBS and incubated for 1 hour with the appropriate horseradish peroxidase-conjugated anti-rabbit or anti-mouse (Amersham, Orsay, France) secondary antibodies. Revelation was done using a luminescent Image Analyzer (GE Healthcare, Orsay, France).

[2] = test system: IGROV1-R10 chemoresistant ovarian cancer cells; test: Pyridoclax / ABT-737 association, apoptotic cell death; format: cell-based
Experimental: (§3) FIG. 4 represents the effect of the association of Pyridoclax with ABT-737 on chemoresistant ovarian cancer cells IGROV1-R10 (top) and SKOV3 (bottom). Cells were concomitantly (A, E) or sequentially (B) exposed to 25 μM Pyridoclax and 5 μM ABT-737, and cellular effects were assessed either longitudinally (A, B, E) or after 24 h (C, D, F). [A, B, E] real time cellular activity assessed by impedancmetry (xCELLigence technology), after concomitant exposure (A, E) or sequential exposure (B; 24 h Pyridoclax, then ABT-737). [C]: Cellular morphology and DNA content histograms after a 24 h concomitant exposure. [D and F]: PARP and caspase 3 cleavage after a 24 h concomitant exposure.
(§4) Adherent and floating cells were pooled, washed with 1×PBS and centrifuged at 200 g for 5 min before staining by Annexin V, propidium iodide or both, as recommended by the manufacturer (Roche Diagnostic, Indianapolis, USA). Briefly, 100 μl of Annexin V—Flit or propidium iodide or both were added on the cells pellet (10^6 cells) and incubated 15 minutes at room temperature in obscurity. 500 μl of sample buffer was then added on the suspensions that were thereafter analyzed using a Gallios flow cytometer (Beckman Coulter, Roissy, France) and cell cycle distribution was determined using Kaluza acquisition software (Beckman Coulter).
(§5) Cells were rinsed with ice-cold PBS, suspended in a lysis buffer [RIPA:NaCl 150 mM, Tris (pH 8) 50 mM, Triton X100 1%, PMSF 4 mM, EDTA 5 mM, NaF 10 mM, NaPPi 10 mM, Na3OV4 1 mM, aprotinin 0.5 μl/ml and 4.6 ml ultra pure water] and incubated on ice for 30 minutes. Lysates were collected after centrifugation (13200 g, 10 min, 4° C.) and protein concentrations were determined using the Bradford assay (Bio-Rad, Hercules, USA). 20 μg of protein were separated by SDS-PAGE on a 4-12% gradient polyacrylamide gel (Invitrogen, Cergy-Pontoise, France) and transferred to Hybond-PVDF membranes (Amersham, Orsay, France). […]

[3] = test system: IGROV1-R10 ovarian cancer cells; test: Cellular morphology / cell detachment, molecule alone or with Bcl-xL targeting siRNA; format: cell-based
Experimental: as §1, §2

[4] = test system: IGROV1-R10 chemoresistant ovarian cancer cells; test: Real-time cellular activity by impedancemetry (xCELLigence); format: cell-based; conditions: IGROV1-R10, 25 μM Pyridoclax + 5 μM ABT-737
Experimental: as §3
Compound-mediated cytotoxicity was monitored using Real-Time Cell Analyzer multi-plate (RTCA MP) Instrument, xCELLigence System (Roche Applied Science, Mannheim, Germany). This system monitors cellular events in real time measuring electrical impedance across interdigitated micro-electrodes integrated on the bottom of tissue culture E-plates View (Roche). […] Thus, this index reflects changes in cell viability as described by Ke et al. (2011, Methods Mol Biol 740, 33-43). […] Impedance was continuously measured until the end of the treatment. Standard deviations of well replicates were analyzed with the RTCA Software.

[5] = test system: SKOV3 chemoresistant ovarian cancer cells; test: Pyridoclax / ABT-737 association, apoptotic cell death; format: cell-based, human
Experimental: as §3, §4, §5

[6] = biological target: T1, Mcl-1/Puma interaction (Homo sapiens, UniProt Q07820); test: BRET assay, Mcl-1/Puma interaction; format: cell-based; conditions: BRET in Hela cells, 16 hours
T1 construct: expressed in transfected cells; host or cells: HeLa cells
Experimental: Hela cells were seeded on 6-well plates and transfected with 200 ng/well of plasmid pRLuc-Bax, pRLuc-Puma or pRLuc-Noxa coding for BRET donors and 1 µg/well of peYFP-Bcl-xL or peYFP-Mcl-1 coding for BRET acceptors (or with pCMV-Bcl-xL or pCMV-Mcl-1 for control). Twenty-four hours after transfection, cells were trypsinized and re-seeded into white 96 well plate flat bottom, incubated for another day, and then treated with drugs for 16 hours at 10 μM. Light emission at 485 nm and 530 nm was measured consecutively using the Mithras fluorescence-luminescence detector LB 940 (Berthold) after adding the luciferase substrate, coelenterazine H (Uptima) at a final concentration of 5 μM. BRET ratios were calculated as described [Terrillon et al. (2003) Mol Endocrinol 17, 677-691, Vo et al. (2012) Eur J Med Chem., 286-93].

[7] = IGROV1-R10, Pyridoclax associated to siXL1

T1 sequence (Q07820 whole entry): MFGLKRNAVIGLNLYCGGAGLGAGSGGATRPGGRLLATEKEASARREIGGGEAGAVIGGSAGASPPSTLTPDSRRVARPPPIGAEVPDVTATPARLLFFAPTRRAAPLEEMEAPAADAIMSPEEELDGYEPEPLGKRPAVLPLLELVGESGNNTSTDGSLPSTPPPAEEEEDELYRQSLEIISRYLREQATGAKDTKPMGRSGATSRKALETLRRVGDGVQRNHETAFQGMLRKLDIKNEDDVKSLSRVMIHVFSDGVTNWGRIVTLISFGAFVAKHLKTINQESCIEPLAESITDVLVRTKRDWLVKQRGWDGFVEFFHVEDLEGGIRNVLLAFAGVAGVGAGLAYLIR

SMILES: Cc1cc(-c2ncc(-c3cccnc3)cc2/C=C/c2ccccc2)cnc1-c1cccnc1 [Pyridoclax, 5,6′-di(pyridin-3-yl)-5′-methyl-3-((E)-styryl)-2,3′-bipyridine]
- cleavage of PARP and caspase 3 [1, 7]: complete cleavage of PARP and caspase 3
- PARP cleavage ([1]; Molecule + Bcl-xL targeting siRNA): +++
- cell death, combination with ABT-737 ([2]; IGROV1-R10, 25 μM Pyridoclax + 5 μM ABT-737): massive apoptotic cell death
- cell death as single agent ([2]; IGROV1-R10, single agent): neither ABT-737 nor Pyridoclax induced cell death as single agents
- effects in response to 10 μM ([3]; IGROV1-R10, Pyridoclax 10 μM associated to siXL1 (data not shown)): also observed in a lower extend
- Cell detachment [3, 7]: strong cell detachment
- concentration at which effects are optimal [3, 7]: 25 µM
- cell death, agent on its own ([3]; IGROV1-R10, single agent): neither Pyridoclax nor the Bcl-xL targeting siRNA (siXL1) induced massive cell death on their own
- cellular activity (impedancemetry) [4]: drastically decreased
- cell death, combination with ABT-737 ([5]; SKOV3, 25 μM Pyridoclax + 5 μM ABT-737): massive apoptotic cell death
- cell death as single agent ([5]; SKOV3, single agent): neither ABT-737 nor Pyridoclax induced cell death as single agents
- effect on Mcl-1/Puma interaction ([6]; 10 μM): able to disrupt
- inhibition at 10 µM [6]: ~50%

— patent US10307410B2, “Mcl-1 modulating compounds for cancer treatment” (CENTRE REGIONAL DE LUTTE CONTRE LE CANCER FRANCOIS BACLESSE, priority 2014, dated 2019)
